From patent US12565511B2, “SOS1 inhibitor containing phosphorus” (Chia Tai Tianqing Pharmaceutical Group Co., Ltd., priority 2020, dated 2026)

Assays:
[1] = target: T1, KRAS-G12C/SOS1 (Homo sapiens, UniProt Q07889); assay: biochemical
T1 sequence (Q07889 564-1049): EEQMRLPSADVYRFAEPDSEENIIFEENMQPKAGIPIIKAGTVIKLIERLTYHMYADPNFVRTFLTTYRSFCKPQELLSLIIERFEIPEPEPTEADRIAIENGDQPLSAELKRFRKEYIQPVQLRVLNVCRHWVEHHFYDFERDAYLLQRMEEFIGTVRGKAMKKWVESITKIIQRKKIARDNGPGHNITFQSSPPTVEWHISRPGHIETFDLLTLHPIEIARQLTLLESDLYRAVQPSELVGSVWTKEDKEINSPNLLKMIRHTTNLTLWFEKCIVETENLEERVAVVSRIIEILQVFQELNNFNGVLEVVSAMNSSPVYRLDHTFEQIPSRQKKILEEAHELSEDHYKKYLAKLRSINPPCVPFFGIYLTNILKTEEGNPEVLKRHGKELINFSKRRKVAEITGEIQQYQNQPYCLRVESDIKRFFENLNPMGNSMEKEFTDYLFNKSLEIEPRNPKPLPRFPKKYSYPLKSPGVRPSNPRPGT

[2] = test system: K562 cells; assay: Assay for proliferation inhibitory activity of K562 cells; format: cell-based; settings: Homo sapiens, 72 h, CCK-8, read-out: K562 cell proliferation inhibition IC50
Method: Test Example 4 Assay for Proliferation Inhibitory Activity of K562 Cells
The K562 cell line can be purchased from the American Type Culture Collection (ATCC).
The K562 cells in a good growth state were added to a centrifuge tube with the cell density adjusted to 3×10^4/mL, and seeded on a 96-well plate (100 μL/well). The cells were cultured overnight in a cell incubator, the compound was loaded using a nanoliter pipettor to allow the final compound concentration to be 10000 nM to 4.6 nM, 2 replicate wells were set and control was set.

[3] = target: T2, SOS1cat / KRAS G12C (Homo sapiens, UniProt Q07889); assay: Guanine nucleotide exchange test (HTRF); format: biochemical; settings: SOS1cat-mediated loading of EDA-GTP-DY-647P1 on His-KRAS G12C, 20° C.; read-out: Nucleotide conversion of HTRF IC50
T2 sequence (Q07889 564-1049): T1 sequence (Q07889 564-1049)
Method: Test Example 2 Guanine Nucleotide Exchange Test
This test quantitatively investigates the ability of SOS to mediate KRAS activation. KRAS G12C with a His tag was added to the system, anti-His antibody labeled with lanthanide Eu was combined with the system, then auxiliary protein SOS1cat and GTP analogue EDA-GTP-DY-647P1 with fluorophore were added thereto, the GTP analogue with fluorophore was loaded on KRAS G12C with the assistance of the auxiliary protein, and then energy resonance transfer occurred between Anti-6HS-Cryptate (FRET donor) and EDA-GTP-DY-647P1 (FRET acceptor).
However, after pretreatment with SOS1 inhibitor compounds, the ability of SOS1 to bind and mediate KRAS activation was weakened, and the ability of FRET between donor and acceptor was weakened.
Test buffer was prepared with the following components: HEPES pH 7.4: 20 mM; NaCl: 150 mM; MgCl2: 0.5 mM; DTT: 2 mM; BSA: 0.05%; and Igepal: 0.0025%.
KRAS G12C working solution, SOS1cat working solution and blank control solution were prepared with the test buffers; wherein the KRAS G12C working solution contained 100 nM His-KRAS G12C and 2 nM […]; the SOS1cat working solution contained 20 nM SOS1cat and 200 nM EDA-GTP-DY-647P1; and the blank control solution contained 100 nM EDA-GTP-DY-647P1.
The whole test procedures were completed at 20° C.

| SMILES | IC50 [1] [nM] | IC50 [2] [nM] | IC50 [3] [nM] |
| --- | --- | --- | --- |
| Cc1nc(N[C@H](C)c2cccc(C(F)(F)F)c2F)c2cc(P3(=O)CCN(S(C)(=O)=O)CC3)ncc2n1 [Example 19] | 41 | 206 |  |
| Cc1nc(N[C@H](C)c2cccc3c2OCC3(F)F)c2cc(P3(=O)CCN(S(C)(=O)=O)CC3)ncc2n1 [Example 22] | 63 | 836 |  |
| Cc1nc(N[C@H](C)c2cccc(C(C)(F)F)c2F)c2cc(P3(=O)CCN(S(C)(=O)=O)CC3)ncc2n1 [Example 23] |  | 118 | 283 |
| C[C@@H](Nc1nc(CF)nc2cnc(P3(=O)CCN(S(C)(=O)=O)CC3)cc12)c1cccc(C(F)(F)F)c1F [Example 24] |  | 177 |  |
| [2H]C(C)(Nc1nc(C)nc2cnc(P3(=O)CCN(S(C)(=O)=O)CC3)cc12)c1cccc(C(F)(F)F)c1F (stereo not drawn) [Example 25] | 86 | 247 |  |
| Cc1nc(N[C@H](CF)c2cccc(C(F)(F)F)c2C)c2cc(P3(=O)CCN(S(C)(=O)=O)CC3)ccc2n1 [Example 26] | 103 |  |  |
| COc1cc2ncnc(N[C@H](C)c3cccc(C(F)F)c3F)c2cc1P1(=O)CCN(C(C)=O)CC1 [Example 28] | 50 | 239 |  |
| COc1cc2ncnc(N[C@H](C)c3cccc(C(F)F)c3F)c2cc1P1(=O)CCN(S(C)(=O)=O)CC1 [Example 29] | 63 | 320 |  |
| COc1cc2nc(CF)nc(N[C@H](C)c3cccc(C(F)F)c3F)c2cc1P1(=O)CCN(C(C)=O)CC1 [Example 30] | 68 | 302 |  |
| CC(=O)N1CCP(=O)(c2ccc3nc(CF)nc(N[C@H](C)c4cccc(C(F)F)c4F)c3c2)CC1 [Example 31] | 129 | 513 |  |
| CC(=O)N1CCP(=O)(c2cc3c(N[C@H](C)c4cccc(C(F)F)c4F)nc(CF)nc3cc2F)CC1 [Example 32] | 90 | 155 |  |
| CC(=O)N1CCP(=O)(c2ccc3nc(Cl)nc(N[C@H](C)c4cccc(C(F)F)c4F)c3c2)CC1 [Example 33] | 64 | 250 |  |
| CCP(=O)(CC)c1cc2c(N[C@H](C)c3cccc(C(F)F)c3F)nc(C)nc2cc1OC [Example 34] | 612 |  |  |
| Cc1nc(N[C@H](C)c2cccc(C(F)F)c2F)c2cc(P3(=O)CCOCC3)ncc2n1 [Example 35] | 156 | 574 |  |
| Cc1nc(N[C@H](C)c2cccc(C(F)F)c2F)c2cc(P3(=O)CCOCC3)ccc2n1 [Example 36] | 94 | 346 |  |
| Cc1nc(N[C@H](C)c2cccc(C(F)(F)F)c2F)c2cc(P3(=O)CCOCC3)ccc2n1 [Example 37] | 97 | 362 |  |
| Cc1nc(N[C@H](C)c2cccc(C(F)F)c2F)c2cc(P3(=O)CCOCC3)c(F)cc2n1 [Example 38] | 115 | 477 |  |
| Cc1nc(N[C@H](C)c2cccc(C(F)F)c2F)c2cc(P3(=O)CCOCC3)cc(F)c2n1 [Example 39] | 103 | 561 |  |
| Cc1nc(N[C@H](C)c2cccc(C(F)(F)F)c2C)c2cc(P3(=O)CCOCC3)c(=O)n(C)c2n1 [Example 40] | 179 | 514 |  |
| Cc1nc(N[C@H](C)c2cccc(C(F)(F)F)c2F)c2cc(P3(=O)CCOCC3)nc(C#N)c2n1 [Example 41] | 180 | 570 |  |
| Cc1nc(N[C@H](C)c2cc(N)cc(C(F)(F)F)c2)c2cc(P(C)(C)=O)c(O)cc2n1 [Example 44] |  |  | 724 |
| Cc1nc(N[C@H](C)c2cc(N)cc(C(F)(F)F)c2)c2cc(P(C)(C)=O)c(OC(F)F)cc2n1 [Example 45] |  | 1080 | 694 |
| Cc1nc(N[C@H](C)c2cc(N)cc(C(F)(F)F)c2)c2cc(P(C)(C)=O)c(OCF)cc2n1 [Example 46] |  | 491 | 498 |
| [2H]C([2H])([2H])Oc1cc2nc(C)nc(N[C@H](C)c3cc(N)cc(C(F)(F)F)c3)c2cc1P(C)(C)=O [Example 47] |  | 440 | 573 |

| SMILES | IC50 [1] [nM] | IC50 [2] [nM] | IC50 [3] [nM] |
| --- | --- | --- | --- |
| COCCN1CCP(=O)(c2cc3c(N[C@H](C)c4cccc(C(F)(F)F)c4)nc(C)nc3cn2)CC1 [Example 48] |  | 1570 | 895 |
| Cc1nc(N[C@H](C)c2cccc(C(F)(F)F)c2)c2cc(P3(=O)CCN(C)CC3)ncc2n1 [Example 49] |  | 2150 | 1470 |
| Cc1nc(N[C@H](C)c2cccc(C(C)(F)F)c2F)c2cc(P3(=O)CCN(CC4CC4)CC3)ncc2n1 [Example 50] |  | 334 | 456 |
| Cc1nc(N[C@H](C)c2cccc(C(F)F)c2F)c2cc(P3(=O)CCN(C4COC4)CC3)ncc2n1 [Example 51] | 100 | 282 |  |
| Cc1nc(N[C@H](C)c2cccc(C(C)(F)F)c2F)c2cc(P3(=O)CCN(C(=O)C4CCC4)CC3)ncc2n1 [Example 52] |  | 95 | 455 |
| COC(=O)N1CCP(=O)(c2cc3c(N[C@H](C)c4cccc(C(F)F)c4F)nc(C)nc3cn2)CC1 [Example 53] |  | 93 | 504 |
| CNCc1ccccc1-c1csc([C@@H](C)Nc2nc(C)nc3cnc(P4(=O)CCN(C(=O)C5CC5)CC4)cc23)c1 [Example 54] |  | 84 | 486 |
| Cc1nc(N[C@H](C)c2cccc(C(F)F)c2F)c2cc(P3(=O)CCN(C(=O)N(C)C)CC3)ncc2n1 [Example 55] | 87 | 280 |  |
| Cc1nc(N[C@H](C)c2cccc(C(F)F)c2F)c2cc(P3(=O)CCN(CC#N)CC3)ccc2n1 [Example 56] | 88 | 507 |  |
| Cc1nc(N[C@H](C)c2cccc(C(F)F)c2F)c2cc(P3(=O)CCN(CC(=O)N(C)C)CC3)ccc2n1 [Example 57] | 204 | 2170 |  |
| Cc1nc(N[C@H](C)c2cc(N)cc(C(F)(F)F)c2C)c2cc(P3(=O)CCN(C(=O)C(C)C)CC3)ncc2n1 [Example 58] |  | 31 | 433 |
| Cc1nc(N[C@H](C)c2cc(N)cc(C(F)(F)F)c2C)c2cc(P3(=O)CCN(C(=O)C4(F)CC4)CC3)ncc2n1 [Example 59] |  | 21 | 448 |
| Cc1nc(N[C@H](C)c2cc(N)cc(C(F)(F)F)c2C)c2cc(P3(=O)CCN(C(=O)C(C)(C)F)CC3)ncc2n1 [Example 60] |  | 30 | 433 |
| Cc1nc(N[C@H](C)c2cccc3c(F)coc23)c2cc(P3(=O)CCN(S(C)(=O)=O)CC3)ccc2n1 [Example 61] | 63 | 421 |  |
| Cc1nc(N[C@H](C)c2cccc(C(F)(F)F)c2C)c2cc(P3(=O)CCN(S(C)(=O)=O)CC3)ccc2n1 [Example 62] | 45 | 155 |  |
| COc1cc2nc(C)nc(N[C@H](C)c3cccc(C(F)F)c3F)c2cc1P1(=O)CCN(S(C)(=O)=O)CC1 [Example 63] | 38 | 137 |  |
| C[C@@H](Nc1ncnc2cnc(P3(=O)CCN(S(C)(=O)=O)CC3)cc12)c1cccc(C(C)(F)F)c1F [Example 64] | 64 | 281 |  |
| COc1cc2nc(C)nc(N[C@H](C)c3cccc(C(F)F)c3C)c2cc1P1(=O)CCOCC1 [Example 66] | 79 | 271 |  |
| COc1cc2nc(C)nc(N[C@H](C)c3cccc(C(F)(F)F)c3C)c2cc1P1(=O)CCOCC1 [Example 67] | 71 | 264 |  |
| COc1cc2nc(C)nc(N[C@H](C)c3cccc(C(F)(F)F)c3F)c2cc1P1(=O)CCOCC1 [Example 68] | 90 | 720 |  |
| COc1cc2nc(C)nc(N[C@H](C)c3cccc(C(C)(F)F)c3F)c2cc1P1(=O)CCOCC1 [Example 69] | 49 | 310 |  |
| COc1cc2nc(C)nc(N[C@H](C)c3cccc(C(F)(F)CO)c3)c2cc1P1(=O)CCOCC1 [Example 70] | 44 | 257 |  |
| COc1cc2nc(C)nc(N[C@H](C)c3cccc(C(F)(F)C(C)(C)O)c3)c2cc1P1(=O)CCOCC1 [Example 71] | 35 | 139 |  |
